The test system of one data set is Nilaparvata lugens. As to the kind of experiment: Insecticidal activities to plant hopper, spraying method. As to conditions: in vivo. Type of data set: in vivo. The method, then:
(§1) Mortality (%)=(the number of the survival aphis in control group−the number of the survival aphis in the treatment group)/the number of the survival aphis in control group×100%
(2): Insecticidal Activities to Plant hopper
Plant hopper (Nilaparvata lugens), which belongs to Homoptera and has a piercing-sucking mouthpart, is a common insect for agricultural plant. Nilaparvata lugens was tested by spraying method.
Procedure: the test compound was exactly formulated with acetone to form solutions having concentrations of 500, 250, 100, 50, 25, 12.5, 6.25, 3.13, 1.57 and 0.79 ppm, respectively. Aqueous acetone solution was used as control. Each treatment was repeated for 3 tumblers (3 times). Two ml of solution was sprayed uniformly to each tumbler with a mini manual sprayer. 10 insects were introduced to every basin 6 hours before spraying. Three series of experiments were conducted. The number of killed insects was counted after 24 hours to calculate the mortality according to the above mentioned formula.

Another data set has as its system Aphis craccivoral. As to the kind of experiment: Insecticidal activities to aphids, immersion method. Type of data set: in vivo. As to conditions: in vivo. The method, then:
(1): Insecticidal Activities to Aphids
Aphis (Aphis craccivoral), which belongs to Homoptera and has a piercing-sucking mouthpart, is a common insect for agricultural plant. Aphis craccivoral was tested by immersion method.
Procedure: exactly weighed various samples were independently added to N,N-dimethylformamide to form 10 g/L stock solutions. The stock solutions were diluted with 0.2 mL/L aqueous Triton X-100 solution to a concentration of 500 ppm. After stably sucking on bean sprout, the wingless adult aphis together with bean sprout were dipped into 500 ppm dilution, taken out after 5 seconds, and the excess dilution was sucked off with bibulous paper. The treated wingless adult aphis was incubated in clean vessel at a constant temperature of 23° C. Each concentration was repeated for 3 times and the control group was treated with 0.2mL/L aqueous Triton X-100 solution. The number of killed aphis was counted after 24 hours and the mortality was to calculated according to the following formula:
as §1

With `CCN(Cc1cnc(Cl)s1)C(=NC)C(=Cc1ccoc1)[N+](=O)[O-]` [Compound 226], the “Nilaparvata lugens Mortality (%) 500 ppm” value with Nilaparvata lugens is on record as 49%. The “Aphis craccivoral Mortality (%) 500 ppm” value in the data set with Aphis craccivoral was 68%.
The matching figures for `CCN(Cc1ccc(Cl)nc1)C(=NC)C(=Cc1ccco1)[N+](=O)[O-]` [Compound 179]: 100% and 100%.
With `CN=C(C(=Cc1ccc([N+](=O)[O-])s1)[N+](=O)[O-])N(C)Cc1cnc(Cl)s1` [Compound 222], the “Nilaparvata lugens Mortality (%) 500 ppm” value in the data set on Nilaparvata lugens is 67%. The “Aphis craccivoral Mortality (%) 500 ppm” value in the data set with Aphis craccivoral is 46%.
Take `CCN=C(C(=Cc1ccc(Br)o1)[N+](=O)[O-])N(C)Cc1ccc(Cl)nc1` [Compound 174]: the “Nilaparvata lugens Mortality (%) 500 ppm” value with Nilaparvata lugens turned out to be 100%. The “Aphis craccivoral Mortality (%) 500 ppm” value in the data set with Aphis craccivoral is reported as 100%.
Consider `CCN(C(=NC)C(=Cc1ccc(Cl)o1)[N+](=O)[O-])C(C)c1ccc(Cl)nc1` (centres unmarked) [Compound 208], for which, in the data set with Nilaparvata lugens, the “Nilaparvata lugens Mortality (%) 500 ppm” value turned out to be 100%. Further, the “Aphis craccivoral Mortality (%) 500 ppm” value in the data set on Aphis craccivoral is 42%.
With `CN=C(NCc1ccc(Cl)nc1)C(=Cc1ccc(Br)o1)[N+](=O)[O-]` [Compound 155], the “Nilaparvata lugens Mortality (%) 500 ppm” value with Nilaparvata lugens is on record as 36%. The “Aphis craccivoral Mortality (%) 500 ppm” value in the data set on Aphis craccivoral is listed as 67%.
The matching figures for `CCN(Cc1ccc(Cl)nc1)C(=NC)C(=Cc1ccsc1)[N+](=O)[O-]` [Compound 185]: 100% and 100%.
The matching figures for `CN=C(C(=Cc1ccc([N+](=O)[O-])s1)[N+](=O)[O-])N(C)Cc1ccc(Cl)nc1` [Compound 238]: 98% and 91%.
In the case of `CN=C(C(=Cc1ccco1)[N+](=O)[O-])N(C)Cc1ccc(Cl)nc1` [Compound 161], the “Nilaparvata lugens Mortality (%) 500 ppm” value in the data set with Nilaparvata lugens is reported as 65%. Moreover, the “Aphis craccivoral Mortality (%) 500 ppm” value in the data set with Aphis craccivoral turned out to be 100%.
On to `CCN(Cc1ccc(Cl)nc1)C(=NC)C(=Cc1ccc(Br)o1)[N+](=O)[O-]` [Compound 183], for which, in the data set on Nilaparvata lugens, the “Nilaparvata lugens Mortality (%) 500 ppm” value turned out to be 100%. For the same compound, in the data set on Aphis craccivoral, the “Aphis craccivoral Mortality (%) 500 ppm” value came out at 100%.
Regarding `CCN(Cc1ccc(Cl)nc1)C(=NC)C(=Cc1ccc(Cl)o1)[N+](=O)[O-]` [Compound 182], the “Nilaparvata lugens Mortality (%) 500 ppm” value with Nilaparvata lugens is listed as 100%. In addition, the “Aphis craccivoral Mortality (%) 500 ppm” value with Aphis craccivoral is recorded as 100%.
On to `CCN(Cc1cnc(Cl)s1)C(=NC)C(=Cc1ccc(Cl)o1)[N+](=O)[O-]` [Compound 228], for which, in the data set on Nilaparvata lugens, the “Nilaparvata lugens Mortality (%) 500 ppm” value is listed as 100%. In the data set with Aphis craccivoral, the “Aphis craccivoral Mortality (%) 500 ppm” value was 100%.
In the case of `CCN(C(=NC)C(=Cc1ccc([N+](=O)[O-])o1)[N+](=O)[O-])C(C)c1ccc(Cl)nc1` (centres unmarked) [Compound 207], the “Nilaparvata lugens Mortality (%) 500 ppm” value in the data set with Nilaparvata lugens was 100%. Also, the “Aphis craccivoral Mortality (%) 500 ppm” value in the data set with Aphis craccivoral was determined as 94%.
Consider `CCN=C(C(=Cc1ccc([N+](=O)[O-])o1)[N+](=O)[O-])N(CC)Cc1ccc(Cl)nc1` [Compound 191], for which the “Nilaparvata lugens Mortality (%) 500 ppm” value in the data set on Nilaparvata lugens was 100%. Moreover, the “Aphis craccivoral Mortality (%) 500 ppm” value in the data set with Aphis craccivoral is on record as 95%.
The matching figures for `CCN(Cc1ccc(Cl)nc1)C(=NC)C(=Cc1ccc([N+](=O)[O-])s1)[N+](=O)[O-]` [Compound 186]: 100% and 100%.
Taken in the same sequence, the figures for `CCN(Cc1ccc(Cl)nc1)C(=NC)C(=Cc1ccoc1)[N+](=O)[O-]` [Compound 242] were 100% and 100%.
Taken in the same sequence, the figures for `CN=C(C(=Cc1ccoc1)[N+](=O)[O-])N(C)Cc1ccc(Cl)nc1` [Compound 233] were 86% and 80%.
In the case of `CN=C(C(=Cc1cccs1)[N+](=O)[O-])N(C)Cc1ccc(Cl)nc1` [Compound 236], the “Nilaparvata lugens Mortality (%) 500 ppm” value with Nilaparvata lugens came out at 79%. For the same compound, the “Aphis craccivoral Mortality (%) 500 ppm” value in the data set on Aphis craccivoral was determined as 82%.
The matching figures for `CN=C(C(=C(C)c1ccsc1)[N+](=O)[O-])N(C)C(C)c1ccc(Cl)nc1` (centres unmarked) [Compound 213]: 68% and 89%.
The matching figures for `CCN(Cc1ccc(Cl)nc1)C(=NC)C(=Cc1cccs1)[N+](=O)[O-]` [Compound 184]: 100% and 98%.
For `CCN(Cc1cnc(Cl)s1)C(=NC)C(=Cc1ccc([N+](=O)[O-])o1)[N+](=O)[O-]` [Compound 227], the “Nilaparvata lugens Mortality (%) 500 ppm” value with Nilaparvata lugens was determined as 100%. For the same compound, the “Aphis craccivoral Mortality (%) 500 ppm” value in the data set on Aphis craccivoral was 100%.
Regarding `CN=C(C(=C(C)c1ccc(Cl)s1)[N+](=O)[O-])N(C)C(C)c1ccc(Cl)nc1` (centres unmarked) [Compound 215], the “Nilaparvata lugens Mortality (%) 500 ppm” value with Nilaparvata lugens stood at 100%. The “Aphis craccivoral Mortality (%) 500 ppm” value with Aphis craccivoral worked out at 100%.
For `CN=C(NCc1ccc(Cl)nc1)C(=Cc1ccoc1)[N+](=O)[O-]` [Compound 152], the “Nilaparvata lugens Mortality (%) 500 ppm” value in the data set with Nilaparvata lugens was 64%. The “Aphis craccivoral Mortality (%) 500 ppm” value in the data set on Aphis craccivoral amounted to 67%.
The matching figures for `CN=C(C(=Cc1cccs1)[N+](=O)[O-])N(C)Cc1cnc(Cl)s1` [Compound 220]: 67% and 80%.
As for `CN=C(C(=C(C)c1ccc[nH]1)[N+](=O)[O-])N(C)Cc1ccc(Cl)nc1` [Compound 194], the “Nilaparvata lugens Mortality (%) 500 ppm” value with Nilaparvata lugens is listed as 100%. Moreover, the “Aphis craccivoral Mortality (%) 500 ppm” value with Aphis craccivoral stood at 98%.
Take `CCN=C(C(=Cc1ccc(Cl)s1)[N+](=O)[O-])N(C)Cc1ccc(Cl)nc1` [Compound 177]: in the data set with Nilaparvata lugens, the “Nilaparvata lugens Mortality (%) 500 ppm” value is on record as 100%. For the same compound, the “Aphis craccivoral Mortality (%) 500 ppm” value with Aphis craccivoral is 87%.
For the compound `CN=C(C(=C(C)c1ccc[nH]1)[N+](=O)[O-])N(C)C(C)c1ccc(Cl)nc1` (centres unmarked) [Compound 216], the “Nilaparvata lugens Mortality (%) 500 ppm” value in the data set with Nilaparvata lugens came out at 100%. Moreover, the “Aphis craccivoral Mortality (%) 500 ppm” value in the data set with Aphis craccivoral is recorded as 100%.
Turning to `CN=C(C(=Cc1ccc([N+](=O)[O-])o1)[N+](=O)[O-])N(C)Cc1ccc(Cl)nc1` [Compound 163], the “Nilaparvata lugens Mortality (%) 500 ppm” value with Nilaparvata lugens stood at 100%. Further, the “Aphis craccivoral Mortality (%) 500 ppm” value in the data set on Aphis craccivoral is reported as 100%.
As to `CCN(Cc1ccc(Cl)nc1)C(=NC)C(=C(C)c1ccc[nH]1)[N+](=O)[O-]` [Compound 204], in the data set on Nilaparvata lugens, the “Nilaparvata lugens Mortality (%) 500 ppm” value came to 100%. In the data set on Aphis craccivoral, the “Aphis craccivoral Mortality (%) 500 ppm” value was determined as 92%.
The matching figures for `CCN(Cc1ccc(Cl)nc1)C(=NC)C(=Cc1ccc[nH]1)[N+](=O)[O-]` [Compound 188]: 100% and 100%.
In the case of `CCN(Cc1cnc(Cl)s1)C(=NC)C(=Cc1ccc(Cl)s1)[N+](=O)[O-]` [Compound 230], the “Nilaparvata lugens Mortality (%) 500 ppm” value in the data set with Nilaparvata lugens amounted to 50%. Further, the “Aphis craccivoral Mortality (%) 500 ppm” value in the data set on Aphis craccivoral is on record as 75%.
Taken in the same sequence, the figures for `CCN(C(=NC)C(=Cc1ccco1)[N+](=O)[O-])C(C)c1ccc(Cl)nc1` (centres unmarked) [Compound 205] were 87% and 56%.
Taken in the same sequence, the figures for `CN=C(C(=Cc1ccc(Cl)s1)[N+](=O)[O-])N(C)Cc1ccc(Cl)nc1` [Compound 239] were 34% and 58%.
Regarding `CN=C(C(=Cc1ccc(Cl)s1)[N+](=O)[O-])N(C)Cc1ccc(Cl)nc1` [Compound 169], the “Nilaparvata lugens Mortality (%) 500 ppm” value in the data set on Nilaparvata lugens is listed as 67%. For the same compound, in the data set with Aphis craccivoral, the “Aphis craccivoral Mortality (%) 500 ppm” value was 76%.
